The values below are quoted from earlier work in US20170281607A1, “PHARMACEUTICAL COMPOSITIONS AND METHODS FOR THE TREATMENT OF DIABETES” (University of Limerick, priority 2016, published 2017).

Each structure is given as a SMILES string.

For this data set the following is noted: in vivo.

As a reminder, the half-life is the time needed for the level to fall by half in the phase considered. With `COc1ccc2c(c1)[nH]c1c(C)nccc12` [harmine, 7-Methoxy-1-methyl-9H-pyrido[3,4-b]indole], the half-life is 1 to 3 h.
